Reference: the supplement of paper PMC10307832

Legend:
Experiment in all cases: relative viability (nuclei count vs DMSO), 5 days (fraction); higher = more cells survive
GSK-J4 + Pemetrexed = compound: CCOC(=O)CCNc1cc(N2CCc3ccccc3CC2)nc(-c2ccccn2)n1 [GSK-J4] + Nc1nc2[nH]cc(CCc3ccc(C(=O)N[C@@H](CCC(=O)O)C(=O)O)cc3)c2c(=O)[nH]1 [Pemetrexed] (partner 0.2 µM)
Outline: (§1)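 After 5 days of treatment, lung cancer cells in 1536-well plates were fixed and stained in a single step (final 0.05% Triton X-100, 1% formaldehyde, 1 ug/ml Hoechst) and their nuclei counted on 4× images. Treatment had been applied by pin tool the day after seeding as one drug alone or as a fixed anchor-drug dose with five library-drug doses (not always all listed) in √10 steps. Relative viability is the nuclei count of treated wells divided by that of vehicle wells, and values are medians of duplicate plates.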

AZ3146 + OSI-027 = compound: CN1CCC(CC1)OC2=CC(=C(C=C2)NC3=NC=C4C(=N3)N(C(=O)N4C)C5CCCC5)OC [AZ3146] + COc1cccc2cc(-c3nc([C@H]4CC[C@H](C(=O)O)CC4)n4ncnc(N)c34)[nH]c12 [OSI-027] (partner 0.5 µM)
Outline: as §1

AZ3146 + Decitabine = compound: CN1CCC(CC1)OC2=CC(=C(C=C2)NC3=NC=C4C(=N3)N(C(=O)N4C)C5CCCC5)OC [AZ3146] + Nc1ncn([C@H]2C[C@H](O)[C@@H](CO)O2)c(=O)n1 [Decitabine] (partner 2 µM)
Outline: as §1

AZ3146 + Olaparib = compound: CN1CCC(CC1)OC2=CC(=C(C=C2)NC3=NC=C4C(=N3)N(C(=O)N4C)C5CCCC5)OC [AZ3146] + O=C(c1cc(Cc2n[nH]c(=O)c3ccccc23)ccc1F)N1CCN(C(=O)C2CC2)CC1 [Olaparib] (partner 8 µM)
Outline: as §1

Cell Line	relative viability (GSK-J4 + Pemetrexed; first compound 0.5 µM)	relative viability (GSK-J4 + Pemetrexed; first compound 1.581 µM)	relative viability (GSK-J4 + Pemetrexed; first compound 15.81 µM)	relative viability (GSK-J4 + Pemetrexed; first compound 50 µM)	relative viability (AZ3146 + OSI-027; first compound 0.08 µM)	relative viability (AZ3146 + OSI-027; first compound 0.253 µM)	relative viability (AZ3146 + OSI-027; first compound 0.8 µM)	relative viability (AZ3146 + OSI-027; first compound 2.53 µM)	relative viability (AZ3146 + OSI-027; first compound 8 µM)	relative viability (AZ3146 + Decitabine; first compound 0.08 µM)	relative viability (AZ3146 + Decitabine; first compound 0.253 µM)	relative viability (AZ3146 + Decitabine; first compound 0.8 µM)	relative viability (AZ3146 + Decitabine; first compound 2.53 µM)	relative viability (AZ3146 + Decitabine; first compound 8 µM)	relative viability (AZ3146 + Olaparib; first compound 0.08 µM)	relative viability (AZ3146 + Olaparib; first compound 0.253 µM)	relative viability (AZ3146 + Olaparib; first compound 0.8 µM)	relative viability (AZ3146 + Olaparib; first compound 2.53 µM)	relative viability (AZ3146 + Olaparib; first compound 8 µM)	relative viability (GSK-J4 + Pemetrexed; first compound 5 µM)
HARA	0.219	0.214	0.263	0.243	0.31	0.41	0.436	0.582	0.506	0.493	0.563	0.481	0.487	0.478	0.618	0.926	0.818	0.924	0.841	
201T	0.353	0.301	0.33	0.364	0.679	0.567	0.726	0.765	0.685	0.856	0.858	0.885	0.865	0.847	0.855	0.829	0.827	0.874	0.805	0.312
NCI-H23	0.679	0.525	0.568	0.598	0.621	0.699	0.403	0.746	0.616	0.329	0.313	0.324	0.354	0.425	0.291	0.289	0.389	0.356	0.338	0.653
LC-2-ad	0.288	0.281	0.267	0.272	0.694	0.781	0.801	0.92	0.819	0.729	0.783	0.728	0.781	0.716	0.697	0.724	0.697	0.733	0.658	0.247
COR-L 105	0.826		1.09	0.937	0.63	0.653	0.587	0.641	0.404	0.647	0.55	0.632	0.622	0.549	0.654	0.717	0.503	0.696	0.648	1.12
NCI-H647	0.175	0.177	0.184	0.205	0.55	0.656	0.567	0.684	0.697	0.359	0.521	0.381	0.441	0.329	0.412	0.474	0.592	0.603	0.237	0.168
NCI-H1915	0.41	0.518	0.473	0.446	0.519	0.637	0.663	0.625	0.628	0.267	0.27	0.266	0.251	0.264	0.24	0.283	0.271	0.277	0.312	
NCI-H2087	0.622	0.667	0.621	0.742	0.54	0.656	0.469	0.674	0.525	0.227	0.328	0.289	0.315	0.202	0.563	0.654	0.649	0.637	0.419	0.635
NCI-H2085	0.899	0.789	0.883	0.961	0.614	0.648	0.649	0.852	0.475	0.525	0.53	0.581	0.598	0.611	0.792	0.749	0.749	0.764	0.711	0.699
